PubChem BioAssay AID270 (DTP/NCI, 2004)
“And” between values parts separate entries of the source, which are not always exact repeats. Equal values may be shown once. Inconclusive results are not listed.

Test system: BDF1 mice, s.c. Lewis lung carcinoma, T/C %
Experiment: NCI In Vivo Anticancer Drug Screen. Data for tumor model Lewis Lung Carcinoma (subcutaneous) in B6D2F1 (BDF1) mice
Summary of the method: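 Antitumor effect in vivo is scored from survival or tumor burden, reported as treated relative to vehicle controls.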

[1] = endpoint: median survival time, dose: 5.0 mg/kg/injection, schedule: Q01DX009 (ip), vehicle: saline, higher = longer survival
[2] = endpoint: median survival time, dose: 10.0 mg/kg/injection, schedule: Q01DX009 (ip), vehicle: saline, higher = longer survival

In the case of Cc1cc(C)nc(NS(=O)(=O)c2ccc(N=Nc3nc4[nH]c(N)nc(=S)c4[nH]3)cc2)n1, the T/C (endpoint: median survival time, dose: 0.78 mg/kg/injection, schedule: Q01DX009 (ip), vehicle: Klucel (hydroxypropylcellulose) (HPC), higher = longer survival) is reported as 96 % of control and the T/C (endpoint: median survival time, dose: 1.56 mg/kg/injection, schedule: Q01DX009 (ip), vehicle: Klucel (hydroxypropylcellulose) (HPC), higher = longer survival) is reported as 108 % of control.
With CC[C@H](CC[C@@H](C)[C@H]1CC[C@H]2[C@@H]3CC=C4C[C@@H](O)CC[C@]4(C)[C@H]3CC[C@]12C)C(C)C the T/C (endpoint: mean tumor weight, dose: 15.0 mg/kg/injection, schedule: Q01DX011 (ip), vehicle: water, higher = larger tumour) was 72 % of control, the T/C (endpoint: mean tumor weight, dose: 25.0 mg/kg/injection, schedule: Q01DX011 (ip), vehicle: water, higher = larger tumour) was 74 % of control and the T/C (endpoint: mean tumor weight, dose: 40.0 mg/kg/injection, schedule: Q01DX011 (ip), vehicle: water, higher = larger tumour) was 47 % of control. For the same molecule, the T/C (endpoint: mean tumor weight, dose: 100.0 mg/kg/injection, schedule: Q01DX011 (ip), vehicle: water, higher = larger tumour) was 47 % of control, the T/C (endpoint: mean tumor weight, dose: 150.0 mg/kg/injection, schedule: Q01DX011 (ip), vehicle: water, higher = larger tumour) was 32 % of control and the T/C (endpoint: mean tumor weight, dose: 225.0 mg/kg/injection, schedule: Q01DX011 (ip), vehicle: water, higher = larger tumour) was 11 % of control.
With CNC1C(O)C(NC)C2OC3(O)C(=O)CC(C)OC3OC2C1O (stereo not drawn) the T/C (endpoint: median survival time, dose: 25.0 mg/kg/injection, schedule: Q01DX009 (ip), vehicle: saline, higher = longer survival) was 111 % of control, the T/C (endpoint: median survival time, dose: 50.0 mg/kg/injection, schedule: Q01DX009 (ip), vehicle: saline, higher = longer survival) was 96 % of control and the T/C (endpoint: median survival time, dose: 100.0 mg/kg/injection, schedule: Q01DX009 (ip), vehicle: saline, higher = longer survival) was 110 % of control.
For ClCCn1cnc2c(SCc3ccccc3)ncnc21, the T/C (endpoint: mean tumor weight, dose: 60.0 mg/kg/injection, schedule: Q01DX011 (ip), vehicle: other, higher = larger tumour) was 107 % of control, the T/C (endpoint: mean tumor weight, dose: 120.0 mg/kg/injection, schedule: Q01DX011 (ip), vehicle: other, higher = larger tumour) was 77 % of control and the T/C (endpoint: mean tumor weight, dose: 240.0 mg/kg/injection, schedule: Q01DX011 (ip), vehicle: other, higher = larger tumour) was 46 % of control.
In the case of CN(C)CC(C(=O)c1ccc(Br)cc1)C(Br)c1ccccc1 (stereo not drawn), the T/C [1] is reported as 107 % of control, the T/C [2] is reported as 100 % of control and the T/C (endpoint: median survival time, dose: 40.0 mg/kg/injection, schedule: Q01DX009 (ip), vehicle: saline, higher = longer survival) is reported as 119 % of control.
With FC(F)(F)c1cc(CN(CCCl)CCCl)cc(C(F)(F)F)c1 the T/C (endpoint: median survival time, dose: 12.5 mg/kg/injection, schedule: Q01DX009 (ip), vehicle: Klucel (hydroxypropylcellulose) (HPC), higher = longer survival) was 90 % of control and the T/C (endpoint: median survival time, dose: 50.0 mg/kg/injection, schedule: Q01DX009 (ip), vehicle: Klucel (hydroxypropylcellulose) (HPC), higher = longer survival) was 90 % of control.
CN1c2c(nc(N)[nH]c2=O)NCC1CCNc1ccc(C(=O)NC(CCC(=O)O)C(=O)O)cc1 (stereo not drawn) was tested, and the T/C (endpoint: median survival time, dose: 268.0 mg/kg/injection, schedule: Q01DX009 (ip), vehicle: saline, higher = longer survival) was 120 % of control, the T/C (endpoint: median survival time, dose: 400.0 mg/kg/injection, schedule: Q01DX009 (ip), vehicle: saline, higher = longer survival) was 116 % of control and the T/C (endpoint: median survival time, dose: 400.0 mg/kg/injection, schedule: Q04DX003 (ip), vehicle: saline, higher = longer survival) was 103 % of control. For the same molecule, the T/C (endpoint: median survival time, dose: 600.0 mg/kg/injection, schedule: Q04DX003 (ip), vehicle: saline, higher = longer survival) was 116 % of control, the T/C (endpoint: median survival time, dose: 800.0 mg/kg/injection, schedule: Q01DX001 (ip), vehicle: saline, higher = longer survival) was 98 % of control and the T/C (endpoint: median survival time, dose: 900.0 mg/kg/injection, schedule: Q04DX003 (ip), vehicle: saline, higher = longer survival) was 106 % of control. For the same molecule, the T/C (endpoint: median survival time, dose: 1200.0 mg/kg/injection, schedule: Q01DX001 (ip), vehicle: saline, higher = longer survival) was 103 % of control and the T/C (endpoint: median survival time, dose: 1800.0 mg/kg/injection, schedule: Q01DX001 (ip), vehicle: saline, higher = longer survival) was 110 % of control.
COc1c(OC)c(OC)c(-c2cc(=O)c3c(OC)c(OC)c(OC)c(OC)c3o2)c(OC)c1OC was tested, and the T/C (endpoint: mean tumor weight, dose: 50.0 mg/kg/injection, schedule: Q01DX011 (sc), vehicle: steriod suspending solution, higher = larger tumour) was 97 % of control, the T/C (endpoint: mean tumor weight, dose: 100.0 mg/kg/injection, schedule: Q01DX011 (sc), vehicle: steriod suspending solution, higher = larger tumour) was 105 % of control and the T/C (endpoint: mean tumor weight, dose: 200.0 mg/kg/injection, schedule: Q01DX011 (sc), vehicle: steriod suspending solution, higher = larger tumour) was 97 % of control. For the same molecule, the T/C (endpoint: mean tumor weight, dose: 400.0 mg/kg/injection, schedule: Q01DX011 (sc), vehicle: steriod suspending solution, higher = larger tumour) was 83 % of control.
For c1ccc2ncccc2c1, the T/C (endpoint: mean tumor weight, dose: 25.0 mg/kg/injection, schedule: Q01DX011 (ip), vehicle: saline, higher = larger tumour) was 81 % of control and the T/C (endpoint: mean tumor weight, dose: 50.0 mg/kg/injection, schedule: Q01DX011 (ip), vehicle: saline, higher = larger tumour) was 49 % of control.
With CC[n+]1ccc(Nc2ccc(/C=C/c3ccc4cc(Nc5cc[n+](CC)cc5)ccc4[n+]3CC)cc2)cc1 the T/C (endpoint: median survival time, dose: 2.5 mg/kg/injection, schedule: Q01DX009 (ip), vehicle: saline, higher = longer survival) was 95 % of control, the T/C [1] was 100 % of control and the T/C [2] was 91 % of control.
For NC(=O)NC1NC(=O)NC1=O (stereo not drawn), the T/C (endpoint: mean tumor weight, dose: 15.6 mg/kg/injection, schedule: Q01DX011 (ip), vehicle: saline, higher = larger tumour) was 67 % of control, the T/C (endpoint: mean tumor weight, dose: 31.3 mg/kg/injection, schedule: Q01DX011 (ip), vehicle: saline, higher = larger tumour) was 97 % of control and the T/C (endpoint: mean tumor weight, dose: 62.5 mg/kg/injection, schedule: Q01DX011 (ip), vehicle: saline, higher = larger tumour) was 69 % of control and 76 % of control. For the same molecule, the T/C (endpoint: mean tumor weight, dose: 125.0 mg/kg/injection, schedule: Q01DX011 (ip), vehicle: saline, higher = larger tumour) was 106 % of control, the T/C (endpoint: mean tumor weight, dose: 250.0 mg/kg/injection, schedule: Q01DX011 (ip), vehicle: saline, higher = larger tumour) was 103 % of control and the T/C (endpoint: mean tumor weight, dose: 500.0 mg/kg/injection, schedule: Q01DX011 (ip), vehicle: saline, higher = larger tumour) was 101 % of control.
C(/C=C/C=C/N1CCCCC1)=[N+]1CCCCC1 was tested, and the T/C (endpoint: median survival time, dose: 0.13 mg/kg/injection, schedule: Q01DX009 (ip), vehicle: saline, higher = longer survival) was 101 % of control, the T/C (endpoint: median survival time, dose: 0.25 mg/kg/injection, schedule: Q01DX009 (ip), vehicle: saline, higher = longer survival) was 110 % of control and the T/C (endpoint: median survival time, dose: 0.5 mg/kg/injection, schedule: Q01DX009 (ip), vehicle: saline, higher = longer survival) was 117 % of control. The T/C (endpoint: median survival time, dose: 1.0 mg/kg/injection, schedule: Q01DX009 (ip), vehicle: saline, higher = longer survival) was 110 % of control.
With C=C1C(=O)O[C@H]2[C@H]1[C@H](OC(=O)/C(C)=C\C)CC(=C)[C@@H]1[C@H](O)[C@H]3O[C@@]3(C)[C@@]12O the T/C (endpoint: mean tumor weight, dose: 7.5 mg/kg/injection, schedule: Q01DX011 (ip), vehicle: saline, higher = larger tumour) was 63 % of control, the T/C (endpoint: mean tumor weight, dose: 15.0 mg/kg/injection, schedule: Q01DX011 (ip), vehicle: saline, higher = larger tumour) was 70 % of control and the T/C (endpoint: mean tumor weight, dose: 30.0 mg/kg/injection, schedule: Q01DX011 (ip), vehicle: saline, higher = larger tumour) was 63 % of control.
COC(=O)[C@H]1[C@H]2C[C@@H]3c4[nH]c5cc(OC)ccc5c4CCN3C[C@H]2C[C@@H](OC(=O)c2cc(OC)c(OC)c(OC)c2)[C@@H]1OC was tested, and the T/C (endpoint: median survival time, dose: 0.25 mg/kg/injection, schedule: Q01DX009 (ip), vehicle: Klucel (hydroxypropylcellulose) (HPC), higher = longer survival) was 91 % of control, the T/C (endpoint: median survival time, dose: 0.5 mg/kg/injection, schedule: Q01DX009 (ip), vehicle: Klucel (hydroxypropylcellulose) (HPC), higher = longer survival) was 97 % of control and 243 % of control and the T/C (endpoint: median survival time, dose: 1.0 mg/kg/injection, schedule: Q01DX009 (ip), vehicle: Klucel (hydroxypropylcellulose) (HPC), higher = longer survival) was 103 % of control. For the same molecule, the T/C (endpoint: median survival time, dose: 2.0 mg/kg/injection, schedule: Q01DX009 (ip), vehicle: Klucel (hydroxypropylcellulose) (HPC), higher = longer survival) was 96 % of control and 243 % of control.
